Assay results taken from US5998362A, “Conjugates useful in the treatment of prostate cancer” (priority 1997, dated 1999).
Where a SMILES comes first, the peptide text is derived from it. [ ]: non-standard residue; d: D form. The star is where a group is joined. Doxorubicin(3'-N) = COc1cccc2c1C(=O)c1c(O)c3c(c(O)c1C2=O)C[C@@](O)(C(=O)CO)C[C@@H]3O[C@H]1C[C@H](N*)[C@H](O)[C@H](C)O1; Decanoyl(3,6,9-trioxa) = COCCOCCOCC(=O)*; hArg = N=C(N)NCCCC[C@H](N)C(=O)O; Chg = N[C@H](C(=O)O)C1CCCCC1

How the values were obtained:
free PSA = free PSA (Homo sapiens, UniProt P07288); assay: Recognition of oligopeptide-doxorubicin conjugates by free PSA (time to 50% cleavage, HPLC); type: biochemical; set-up: required for 50% cleavage of the noted oligopeptides with enzymatically active free PSA; settings: Table 3, DOX conjugates
Chain of free PSA (P07288 25-261): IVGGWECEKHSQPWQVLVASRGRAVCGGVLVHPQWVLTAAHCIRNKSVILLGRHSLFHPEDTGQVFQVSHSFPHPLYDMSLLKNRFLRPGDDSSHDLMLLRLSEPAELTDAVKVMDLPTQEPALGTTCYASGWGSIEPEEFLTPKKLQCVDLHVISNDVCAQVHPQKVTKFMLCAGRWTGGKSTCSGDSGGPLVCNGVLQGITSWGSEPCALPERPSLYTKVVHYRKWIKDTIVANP
Description: If no salt is indicated for the conjugate, the free conjugate was tested.

[1] = test system: LNCap prostate tumor cells; assay: In vitro cytotoxicity of peptidyl derivatives of doxorubicin, Alamar Blue assay, LNCaP; type: cell-based
Description: (§1) The cytotoxicities of the cleaveable oligopeptide-doxorubicin conjugates, prepared as described in Examples 3-6, against a line of cells which is known to be killed by unmodified doxorubicin was assessed with an Alamar Blue assay. Specifically, cell cultures of LNCap prostate tumor cells or DuPRO cells in 96 well plates was diluted with medium containing various concentrations of a given conjugate (final plate well volume of 200 μl). The cells were incubated for 3 days at 37° C., 20 μl of Alamar Blue is added to the assay well. The cells were further incubated and the assay plates were read on a EL-310 ELISA reader at the dual wavelengths of 570 and 600 nm at 4 and 7 hours after addition of Alamar Blue. Relative percentage viability at the various concentration of conjugate tested was then calculated versus control (no conjugate) cultures. If no salt is indicated, the free conjugate was tested.

DuPRO cells = assay: In vitro cytotoxicity of peptidyl derivatives of doxorubicin, Alamar Blue assay, DuPRO; type: cell-based; settings: 3 days incubation, read-out: DuPRO cell kill EC 50 (μM), value in parentheses
Description: as §1

`COCCOCCOCC(=O)N[C@@H](CO)C(=O)N[C@@H](CO)C(=O)N[C@@H](CO)C(=O)N[C@H](C(=O)N[C@@H](CCC(N)=O)C(=O)N[C@@H](CO)C(=O)N[C@H](CC(C)C)C(=O)N[C@H]1C[C@H](O[C@H]2C[C@](O)(C(=O)CO)Cc3c(O)c4c(c(O)c32)C(=O)c2c(OC)cccc2C4=O)O[C@@H](C)[C@H]1O)C1CCCCC1` [PEG(2)-SSSChgQ-S(dL)-DOX(3'), PEG(2)-SerSerSerChgGln-Ser(dLeu)-DOX (3')] was tested, and the “Substrate cleavage by York PSA at 3 HOUR” value (free PSA; 3 hours) was 46%.

For `COCCOCCOCC(=O)N[C@@H](CCCCNC(=N)N)C(=O)N[C@H](C(=O)N[C@@H](CCC(N)=O)C(=O)N[C@@H](CO)C(=O)N[C@@H](CC(C)C)C(=O)N[C@H]1C[C@H](O[C@H]2C[C@](O)(C(=O)CO)Cc3c(O)c4c(c(O)c32)C(=O)c2c(OC)cccc2C4=O)O[C@@H](C)[C@H]1O)C1CCCCC1` [PEG(2)-hRChgQ-SL-DOX(3'), PEG(2)-hArgChgGln-SerLeu-DOX (3')] ({Decanoyl(3,6,9-trioxa)}-[hArg][Chg]QSL-{Doxorubicin(3'-N)}), the “Solubility remark in the cell kill column (INSOLUBLE / PS)” value ([1]; Table 4, DOX conjugates, abbreviation not defined) was “INSOLUBLE”.

“N-[2-{2-(2-methoxyethoxy)ethoxy}acetyl]-Ser-Ser-Ser-Chg-Gln-Ser-Leu-Dox [PEG(2)-SSSChgQ-SL-DOX(3')]” was tested, and the EC50 ([1]; LNCaP cells, 72 h (3 days) incubation, Alamar Blue, read-out: LNCaP Cell Kill in 72 HRS, {48 HRS} EC 50) was 10 µM, the EC50 (DuPRO cells) was greater than 100 µM and the “Time to 50% Substrate Cleavage by York PSA” value (free PSA; buffer 50 mM Tris pH7.4, 140 mM NaCl, conjugate:PSA 100 to 1) was 60 min.
